Reference: ChEMBL document CHEMBL4765241, “Identification and Preclinical Pharmacology of ((1 R,3 S)-1-Amino-3-(( S)-6-(2-methoxyphenethyl)-5,6,7,8-tetrahydronaphthalen-2-yl)cyclopentyl)methanol (BMS-986166): A Differentiated Sphingosine-1-phosphate Receptor 1 (S1P) Modulator Advanced into Clinical Trials” (J Med Chem, 2019)
The source made the active and inactive calls. The calls are words filed in the database; no cut-off is given here.

Key:
[1] = Terminal half-life in cynomolgus monkey at 1 mg/kg, iv; format: ADME, organism-based, Macaca fascicularis; settings: in vivo, read-out: beta t1/2 (converted)
[2] = Terminal half-life in Sprague-Dawley rat at 1 mg/kg, iv; format: ADME, organism-based; settings: in vivo, read-out: beta t1/2 (converted)
[3] = Ratio of drug metabolism in Balb/c mouse blood assessed as phosphate ester metabolite to parent drug at 0.5 mg/kg, po measured at 24 hrs by LC-MS/MS analysis; format: ADME, organism-based; settings: in vivo
[4] = Ratio of drug metabolism in Balb/c mouse blood assessed as phosphate ester metabolite to parent drug at 30 mg/kg, po measured at 24 hrs by LC-MS/MS analysis; format: ADME, organism-based; settings: in vivo
[5] = system: Mus musculus; assay: Reduction in circulating lymphocytes in Balb/c mouse blood at 30 mg/kg, po measured at 4 hrs by hematology analyzer based analysis; format: functional; set-up: scale not given: the % may be the effect or the level left
[6] = Drug metabolism in Lewis rat blood assessed as concentration of parent compound at 3 mg/kg, po measured at 24 hrs by LC-MS/MS analysis
[7] = Drug metabolism in Balb/c mouse blood assessed as phosphate ester metabolite formation at 30 mg/kg, po measured at 4 hrs by LC-MS/MS analysis; format: ADME, organism-based; settings: in vivo
[8] = AUC ratio in orally dosed cynomolgus monkey blood assessed as phosphate metabolite to parent compound; format: ADME, organism-based, Macaca fascicularis; settings: in vivo, po
[9] = Drug metabolism in Lewis rat blood assessed as concentration of parent compound at 3 mg/kg, po measured at 4 hrs by LC-MS/MS analysis; format: ADME, organism-based; settings: read-out: Ct
[10] = AUC ratio in orally dosed Beagle dog blood assessed as phosphate metabolite to parent compound; format: ADME, organism-based, Canis lupus familiaris; settings: in vivo, po
[11] = system: Mus musculus; assay: Reduction in circulating lymphocytes in Balb/c mouse blood at 30 mg/kg, po measured at 24 hrs by hematology analyzer based analysis; format: functional; set-up: scale not given: the % may be the effect or the level left
[12] = Half-life in Lewis rat at 3 mg/kg, po measured over 72 hrs by LC-MS/MS analysis; format: ADME, organism-based; settings: in vivo
[13] = Ratio of drug metabolism in Lewis rat blood assessed as phosphate ester metabolite to parent drug at 3 mg/kg, po measured at 24 hrs by LC-MS/MS analysis; format: ADME, organism-based; settings: in vivo
[14] = system: Mus musculus; assay: Reduction in circulating lymphocytes in Balb/c mouse blood at 0.5 mg/kg, po measured at 24 hrs by hematology analyzer based analysis; format: functional; set-up: scale not given: the % may be the effect or the level left
[15] = Drug metabolism in Balb/c mouse blood assessed as concentration of parent compound at 0.5 mg/kg, po measured at 24 hrs by LC-MS/MS analysis; format: ADME, organism-based; settings: read-out: Ct
[16] = system: Rattus norvegicus; assay: Reduction in circulating lymphocytes in Lewis rat blood at 3 mg/kg, po measured at 24 hrs by hematology analyzer based analysis; format: functional; set-up: scale not given: the % may be the effect or the level left
[17] = AUC ratio in orally dosed Sprague-Dawley rat blood assessed as phosphate metabolite to parent compound; format: ADME, organism-based; settings: in vivo, po
[18] = system: Mus musculus; assay: Reduction in circulating lymphocytes in Balb/c mouse blood at 0.5 mg/kg, po measured at 4 hrs by hematology analyzer based analysis; format: functional; set-up: scale not given: the % may be the effect or the level left
[19] = Drug metabolism in Balb/c mouse blood assessed as concentration of parent compound at 0.5 mg/kg, po measured at 4 hrs by LC-MS/MS analysis; format: ADME, organism-based; settings: in vivo, BLD = below limit of detection
[20] = system: Rattus norvegicus; assay: Drug metabolism in Lewis rat blood assessed as concentration of phosphate ester metabolite formation at 3 mg/kg, po measured at 4 hrs by LC-MS/MS analysis; settings: in vivo
[21] = Drug metabolism in Balb/c mouse blood assessed as concentration of phosphate ester metabolite at 0.5 mg/kg, po measured at 4 hrs by LC-MS/MS analysis; format: ADME, organism-based; settings: in vivo, BLD = below limit of detection
[22] = Drug metabolism in Balb/c mouse blood assessed as concentration of parent compound at 30 mg/kg, po measured at 4 hrs by LC-MS/MS analysis; format: ADME, organism-based; settings: Balb/c, blood, read-out: Ct
[23] = Drug metabolism in Balb/c mouse blood assessed as concentration of phosphate ester metabolite formation at 0.5 mg/kg, po measured at 24 hrs by LC-MS/MS analysis; format: ADME, organism-based; settings: in vivo
[24] = system: Rattus norvegicus; assay: Reduction in circulating lymphocytes in Lewis rat blood at 3 mg/kg, po measured at 4 hrs by hematology analyzer based analysis; format: functional; set-up: scale not given: the % may be the effect or the level left
[25] = Terminal half-life in beagle dog at 1 mg/kg, iv; format: ADME, organism-based, Canis lupus familiaris; settings: in vivo, read-out: beta t1/2 (converted)
[26] = Drug metabolism in Balb/c mouse blood assessed as concentration of phosphate ester metabolite formation at 30 mg/kg, po measured at 24 hrs by LC-MS/MS analysis; format: ADME, organism-based; settings: in vivo
[27] = Drug metabolism in Balb/c mouse blood assessed as concentration of parent compound at 30 mg/kg, po measured at 24 hrs by LC-MS/MS analysis; format: ADME, organism-based; settings: Balb/c, blood, read-out: Ct
[28] = system: Mus musculus; assay: Immunosuppressive activity in MOG (35 to 55 residues)/pertussis toxin-induced experimental autoimmune encephalomyelitis C57BL/6 mouse model assessed as reduction in formation of inflammatory lesions in CNS at 1 mg/kg, po QD starting from day 1 post immunization and measured thrice weekly until day 24; format: functional, organism-based
[29] = AUC ratio in orally dosed human blood assessed as phosphate metabolite to parent compound; format: ADME, organism-based; settings: po
[30] = system: Rattus norvegicus; assay: Reduction in circulating lymphocytes in Lewis rat blood assessed as effective dose after oral dosing measured at 24 hrs by hematology analyzer based analysis; format: functional
[31] = Pulmonary toxicity in Lewis rat assessed as elevation of BAL protein level at 3 mg/kg by advia1800 chemistry analyzer; format: organism-based; settings: in vivo
[32] = system: Cerebellar cortex; assay: Induction of remyelination in lysophosphatidylcholine-induced demyelination in wild-type CD1 mouse organotypic cerebellar slice assessed as myelination index at 0.01 to 10 nM incubated for 7 days by immunohistochemistry based three-dimensional brain cell culture assay (reference value: 50%); format: functional; settings: dose 0.01-10 nM, time 7 day
[33] = Cardiotoxicity in human iPSC derived cardiomyocytes assessed as reduction in beating rate at 10 nM measured over 2 hrs by multi-electrode array relative to control; format: toxicity, cell-based; set-up: scale not given: the % may be the effect or the level left; settings: stem cell-derived cardiomyocyte, 0.01 µM
[34] = system: Cerebellar cortex; assay: Induction of remyelination in lysophosphatidylcholine-induced demyelination in wild-type CD1 mouse organotypic cerebellar slice at 0.01 to 10 nM incubated for 7 days by immunohistochemistry based three-dimensional brain cell culture assay; format: functional, tissue-based; settings: dose 0.01-10 nM, time 7.0 day
[35] = biological target: T1, Sphingosine 1-phosphate receptor 4 (Homo sapiens, UniProt O95977); assay: Agonist activity at human recombinant S1P4 expressed in CHO cell membranes assessed as stimulation of [35S]-GTPgammaS binding measured after 45 mins by liquid scintillation counting assay; format: functional, Cell membrane
T1 sequence (O95977 whole entry): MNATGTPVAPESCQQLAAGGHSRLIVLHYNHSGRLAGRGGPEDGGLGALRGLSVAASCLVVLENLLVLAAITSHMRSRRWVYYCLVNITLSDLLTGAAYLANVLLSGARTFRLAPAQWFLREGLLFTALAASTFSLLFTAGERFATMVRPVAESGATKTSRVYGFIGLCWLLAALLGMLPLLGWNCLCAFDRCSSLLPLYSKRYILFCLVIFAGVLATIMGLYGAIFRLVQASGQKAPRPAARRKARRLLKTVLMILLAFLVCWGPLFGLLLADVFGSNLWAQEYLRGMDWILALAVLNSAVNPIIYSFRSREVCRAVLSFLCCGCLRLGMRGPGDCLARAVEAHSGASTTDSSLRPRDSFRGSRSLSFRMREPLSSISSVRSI

[36] = Cardiotoxicity in human iPSC derived cardiomyocytes assessed as reduction in beating rate at 1 nM measured over 2 hrs by multi-electrode array relative to control; format: toxicity, cell-based; set-up: scale not given: the % may be the effect or the level left; settings: stem cell-derived cardiomyocyte, 0.001 µM

Compound: CCCCCC[C@@H]1CCc2cc([C@H]3CC[C@](N)(CO)C3)ccc2C1 [BMS-986104]
- half-life [1]: 131 h
- half-life [2]: 131 h
- Ratio [3]: 1
- Ratio [4]: 0.5
- Activity [5]: 88%
- Ct [6]: 160 nM
- Drug metabolism [7]: 150 nM
- Ratio AUC [8]: 0.3
- concentration at 4 h [9]: 130 nM
- Ratio AUC [10]: 2.4
- Activity [11]: 90%
- half-life [12]: > 75 h
- Ratio [13]: 1.6
- Activity [14]: 73%
- concentration at 24 h [15]: 19 nM
- Activity [16]: 82%
- Ratio AUC [17]: 2.5
- Activity [18]: 17%
- Ct [19]: Bld
- Drug metabolism [20]: 90 nM
- Drug metabolism [21]: Bld
- concentration at 4 h [22]: 1000 nM
- Drug metabolism [23]: 20 nM
- Activity [24]: 48%
- half-life [25]: 131 h
- Drug metabolism [26]: 620 nM
- concentration at 24 h [27]: 1200 nM

Compound: CCCCCCCCc1ccc(CCC(N)(CO)CO)cc1 [FINGOLIMOD]
- Activity [28]: Active
- Ratio AUC [8]: 5.9
- Ratio AUC [10]: 3.7
- Ratio AUC [29]: 0.42
- Ratio AUC [17]: 5.6
- ED50 [30]: 0.1 mg/kg
- Activity [31]: 12.5 mg/dL

Compound: CCCCCCCCc1ccc(CC[C@](N)(CO)COP(=O)(O)O)cc1 [FTY720-P]
- Activity [32]: 100%
- Activity [33]: 62%
- Activity [34]: Active
- EC50 [35]: 1.6 nM
- Activity [36]: 38%
